Measurements reported in US11053250B2, “Pyrrolo[1,2-b]pyridazine derivatives” (Gilead Sciences, Inc., priority 2018, dated 2021).

Experiments:
[1] = test system: TNFα; assay: IRAK4 Monocyte TNFα Cell Based Assay; conditions: cryopreserved human monocytes, LPS 50 pg/ml stimulation, TNFα by TR-FRET
Description: The cell suspension was then plated at a density of 5,000 cells/well onto black 384 well Greiner clear bottom plates. Plates were pre-spotted with test compounds and serially diluted in DMSO where 40 nL/well were delivered using the Echo 550 acoustic liquid dispenser (Labcyte®) for a final DMSO concentration of 0.1%. Plated cells were treated with compound for 1 hour at 37° C. Cells were then stimulated with 50 pg/ml of LPS (Sigma) excluding outside columns of plate used for unstimulated cell control wells. Cells were incubated for an additional 4 hours at 37° C. Cells were then spun out of the media and 5 μl of sample were taken and analyzed for total TNFα content using the TR-FRET Human TNFα detection system (CisBio). This system utilizes two labeled antibodies (cryptate and XL665) that bind to two different epitopes of the TNFα molecule and produce FRET signal proportional to the concentration of TNFα in the sample. Detection antibodies are mixed 50:50 and 5 μL were dispensed into each well. Plates were covered with clear seals and incubated at room temp overnight. The following morning plates were read using an Envision 2103 Multilabeled reader (PerkinElmer) with excitation/emission/FRET emission at 340 nm/615 nm/665 nm, respectively. Fluorescence intensities at 615 nm and 665 nm emission wavelengths were expressed as a ratio (665 nm/615 nm). Percent of control was calculated as follows: % Control=100×(RatioSample−Ratio0% stimulation)/(Ratio100% Stimulation−Ratio0% stimulation) where unstimulated cells (0% stimulation) were the negative control and stimulated cells (100% stimulation) were used as the positive control.

[2] = biological target: IRAK4 enzyme (Homo sapiens (Human), UniProt Q9NWZ3); assay: IRAK4 Biochemical Assay (TR-FRET/HTRF); conditions: 0.75 nM IRAK4, 500 μM ATP, STK1 peptide
Chain of IRAK4 enzyme (Q9NWZ3 whole entry): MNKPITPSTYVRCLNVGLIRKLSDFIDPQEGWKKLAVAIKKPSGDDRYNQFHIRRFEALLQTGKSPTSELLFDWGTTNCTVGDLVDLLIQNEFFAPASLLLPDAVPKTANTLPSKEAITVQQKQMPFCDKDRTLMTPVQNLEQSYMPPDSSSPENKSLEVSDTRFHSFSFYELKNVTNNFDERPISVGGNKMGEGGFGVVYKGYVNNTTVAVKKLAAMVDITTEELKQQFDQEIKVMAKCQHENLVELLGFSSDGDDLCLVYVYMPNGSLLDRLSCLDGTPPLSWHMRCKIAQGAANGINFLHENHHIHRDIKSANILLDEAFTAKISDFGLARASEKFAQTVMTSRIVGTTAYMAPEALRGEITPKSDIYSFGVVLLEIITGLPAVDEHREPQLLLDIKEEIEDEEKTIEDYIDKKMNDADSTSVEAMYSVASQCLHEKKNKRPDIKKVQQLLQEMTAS
Description: IRAK4 enzyme (Carna Biosciences, Chuo-ku, Kobe, Japan) activity was measured by detecting phosphorylated peptide substrate formation using an antibody against the phosphorylated peptide substrate. This is a time-resolved fluorescence resonance energy transfer (TR-FRET) immunoassay, based on the STK1 KinEASE Assay (Cisbio, Bedford, Mass.). The assay was designed as a simple two-step, endpoint assay (a 5 μl enzyme reaction followed by 5 μl stop and detect Solution) performed in ProxiPlate-384 Plus plates (Perkin Elmer, Waltham, Mass.). Staurosporine, a non-selective kinase inhibitor was used as a positive control. Compounds diluted in DMSO were spotted into 384 well plates using a Labcyte® Echo 550 Liquid Handling System prior to addition of IRAK4 enzyme and peptide substrate. Reaction solutions were delivered using a Multi-Flo (Bio-Tek Instruments). The enzyme and peptide solution was incubated with compound for 15 minutes at room temp before the reaction was initiated by the addition of ATP. The standard 5 μl reaction mixture contained 500 μM ATP, 2 μM peptide (STK1 Peptide), 0.75 nM of IRAK4 in reaction buffer (50 mM HEPES, pH 7.0, 0.02% NaN3, 0.01% BSA, 0.1 mM Orthovanadate, 5 mM MgCl2, 0.025% NP-40, 1 mM DTT). After 120 min of incubation at room temperature, 5 μl of Stop and Detect Solution (1:100 Cryptate labeled anti-phosphorylated peptide antibody solution and 125 nM Tracer in a 50 mM HEPES pH 7.0 detection buffer containing sufficient EDTA) was added. The plate was then further incubated for 60 minutes at room temperature and read on Envision 2103 Multilabeled reader (PerkinElmer) with excitation/emission/FRET emission at 340 nm/615 nm/665 nm, respectively. Fluorescence intensities at 615 nm and 665 nm emission wavelengths were expressed as a ratio (665 nm/615 nm). Percentage of inhibition was calculated as below: % Inhibition=100×(RatioSample−Ratio0% Inhibition)/(Ratio100% Inhibition−Ratio0% Inhibition)
The 0% inhibition value comes from control wells lacking inhibitor. The 100% inhibition value comes from control wells containing a saturating amount of known inhibitor staurosporine.

COC(=O)NC[C@H]1C[C@H](Nc2cc(-c3ccc4cc(C#N)cnn34)ncc2-c2nnn(C[C@@H](F)C(C)(C)O)c2F)C1 [Compound 5, methyl (((1R,3r)-3-((2-(3-cyanopyrrolo[1,2-b]pyridazin-7-yl)-5-(5-fluoro-1-((R)-2-fluoro-3-hydroxy-3-methylbutyl)-1H-1,2,3-triazol-4-yl)pyridin-4-yl)amino)cyclobutyl)methyl)carbamate] showed an EC50 [1] of 145 nM and an IC50 [2] of 3 nM.
Work on COC(=O)NCC1CC(Nc2cc(-c3ccc4cc(C#N)cnn34)ncc2-c2cn(CC3CC(O)C3)nn2)C1 [Compound 6, methyl (((1R,3r)-3-((2-(3-cyanopyrrolo[1,2-b]pyridazin-7-yl)-5-(1-(((1r,3R)-3-hydroxycyclobutyl)methyl)-1H-1,2,3-triazol-4-yl)pyridin-4-yl)amino)cyclobutyl)methyl)carbamate] yielded an EC50 [1] of 19 nM and an IC50 [2] of less than 1 nM.
COC(=O)NCC1CC(Nc2cc(-c3ccc4cc(C#N)cnn34)ncc2-c2cn(C3CC(O)C3)nn2)C1 [Compound 7, methyl (((1R,3r)-3-((2-(3-cyanopyrrolo[1,2-b]pyridazin-7-yl)-5-(1-((1r,3R)-3-hydroxycyclobutyl)-1H-1,2,3-triazol-4-yl)pyridin-4-yl)amino)cyclobutyl)methyl)carbamate] was tested, and the EC50 [1] was 12 nM and the IC50 [2] was less than 1 nM.
In the case of COC(=O)NCC1CC(Nc2cc(-c3ccc4cc(C#N)cnn34)ncc2-c2cn(CC3CC(O)C3)nn2)C1 [Compound 8, methyl (((1R,3r)-3-((2-(3-cyanopyrrolo[1,2-b]pyridazin-7-yl)-5-(1-(((1s,3S)-3-hydroxycyclobutyl)methyl)-1H-1,2,3-triazol-4-yl)pyridin-4-yl)amino)cyclobutyl)methyl)carbamate], the EC50 [1] is reported as 17 nM and the IC50 [2] is reported as less than 1 nM.
COC(=O)NCC1CC(Nc2cc(-c3ccc4cc(C#N)cnn34)ncc2-c2cn(C3CC(CO)C3)nn2)C1 [Compound 9, methyl (((1R,3r)-3-((2-(3-cyanopyrrolo[1,2-b]pyridazin-7-yl)-5-(1-((1r,3R)-3-(hydroxymethyl)cyclobutyl)-1H-1,2,3-triazol-4-yl)pyridin-4-yl)amino)cyclobutyl)methyl)carbamate] gave an EC50 [1] of 16 nM and an IC50 [2] of less than 1 nM.
COC(=O)NCC1CC(Nc2cc(-c3ccc4cc(C#N)cnn34)ncc2-c2cn(C3CC(CNC(=O)OC)C3)nn2)C1 [Compound 10, methyl (((1R,3r)-3-((2-(3-cyanopyrrolo[1,2-b]pyridazin-7-yl)-5-(1-((1r,3R)-3-(((methoxycarbonyl)amino)methyl)cyclobutyl)-1H-1,2,3-triazol-4-yl)pyridin-4-yl)amino)cyclobutyl)methyl)carbamate] gave an EC50 [1] of 20 nM and an IC50 [2] of 1 nM.
In the case of Cn1cc(-c2cnc(-c3ccc4cc(C#N)cnn34)cc2N[C@H]2CCC[C@@H](O)C2)nn1 [Compound 12, 7-(4-(((1S,3R)-3-hydroxycyclohexyl)amino)-5-(1-methyl-1H-1,2,3-triazol-4-yl)pyridin-2-yl)pyrrolo[1,2-b]pyridazine-3-carbonitrile], the EC50 ([1]; Monocyte) is reported as 30 nM and the IC50 [2] is reported as 1 nM.
Compound CC(C)(O)[C@H](F)Cn1cc(-c2cnc(-c3ccc4cc(C#N)cnn34)cc2N[C@H]2CCC[C@@H](O)C2)nn1 [Compound 13, 7-(5-(1-((R)-2-fluoro-3-hydroxy-3-methylbutyl)-1H-1,2,3-triazol-4-yl)-4-(((1S,3R)-3-hydroxycyclohexyl)amino)pyridin-2-yl)pyrrolo[1,2-b]pyridazine-3-carbonitrile] has an EC50 ([1]; Monocyte) of 5 nM and an IC50 [2] of less than 1 nM.
For COC(=O)NC[C@H]1C[C@H](Nc2cc(-c3ccc4cc(C#N)cnn34)ncc2-c2cn(CC(=O)N3CC(F)(F)C3)nn2)C1 [Compound 14, methyl (((1r,3r)-3-((2-(3-cyanopyrrolo[1,2-b]pyridazin-7-yl)-5-(1-(2-(3,3-difluoroazetidin-1-yl)-2-oxoethyl)-1H-1,2,3-triazol-4-yl)pyridin-4-yl)amino)cyclobutyl)methyl)carbamate], the EC50 [1] was 18 nM and the IC50 [2] was less than 1 nM.
For CC(C)(O)[C@H](F)Cn1cc(-c2cnc(-c3ccc4cc(C#N)cnn34)cc2N[C@H]2CC[C@H](c3cnn(C(F)F)c3)CC2)nn1 [Compound 15, 7-(4-(((1r,4R)-4-(1-(difluoromethyl)-1H-pyrazol-4-yl)cyclohexyl)amino)-5-(1-((R)-2-fluoro-3-hydroxy-3-methylbutyl)-1H-1,2,3-triazol-4-yl)pyridin-2-yl)pyrrolo[1,2-b]pyridazine-3-carbonitrile], the EC50 [1] was 18 nM and the IC50 [2] was 3 nM.
With COC(=O)NC[C@H]1C[C@H](Nc2cc(-c3ccc4cc(C#N)cnn34)ncc2-c2cn(CC#N)nn2)C1 [Compound 16, methyl (((1r,3r)-3-((5-(1-(cyanomethyl)-1H-1,2,3-triazol-4-yl)-2-(3-cyanopyrrolo[1,2-b]pyridazin-7-yl)pyridin-4-yl)amino)cyclobutyl)methyl)carbamate] the EC50 [1] was 33 nM and the IC50 [2] was 1 nM.
Work on CNc1cc(-c2ccc3cc(C#N)cnn23)ncc1-c1cn([C@H]2CC[C@H](NC(=O)N3CCOCC3)CC2)nn1 [Compound 18, N-((1r,4r)-4-(4-(6-(3-cyanopyrrolo[1,2-b]pyridazin-7-yl)-4-(methylamino)pyridin-3-yl)-1H-1,2,3-triazol-1-yl)cyclohexyl)morpholine-4-carboxamide] yielded an EC50 [1] of 49 nM and an IC50 [2] of 2 nM.
Compound COC(=O)NC[C@H]1C[C@H](Nc2cc(-c3ccc4cc(C#N)cnn34)ncc2-c2cn([C@H]3CC[C@H](NC(=O)C4CC4)CC3)nn2)C1 [Compound 19, methyl (((1R,3r)-3-((2-(3-cyanopyrrolo[1,2-b]pyridazin-7-yl)-5-(1-((1r,4R)-4-(cyclopropanecarboxamido)cyclohexyl)-1H-1,2,3-triazol-4-yl)pyridin-4-yl)amino)cyclobutyl)methyl)carbamate] has an EC50 [1] of 9 nM and an IC50 [2] of less than 1 nM.
Compound CNc1cc(-c2ccc3cc(C#N)cnn23)ncc1-c1cn([C@H]2CC[C@H](NC(=O)C3CC3)CC2)nn1 [Compound 20, N-((1r,4r)-4-(4-(6-(3-cyanopyrrolo[1,2-b]pyridazin-7-yl)-4-(methylamino)pyridin-3-yl)-1H-1,2,3-triazol-1-yl)cyclohexyl)cyclopropanecarboxamide] has an EC50 [1] of 62 nM and an IC50 [2] of 1 nM.
For Cn1cc(-c2cnc(-c3ccc4cc(C#N)cnn34)cc2NC23CCC(O)(CC2)CC3)nn1 [Compound 21, 7-(4-((4-hydroxybicyclo[2.2.2]octan-1-yl)amino)-5-(1-methyl-1H-1,2,3-triazol-4-yl)pyridin-2-yl)pyrrolo[1,2-b]pyridazine-3-carbonitrile], the EC50 ([1]; Monocyte) was 9 nM and the IC50 [2] was less than 1 nM.
For COC(=O)NCC1CC(Nc2cc(-c3ccc4cc(C#N)cnn34)ncc2-c2cn(C3CCC(NC(=O)OC(C)(C)C)CC3)nn2)C1 [Compound 22, methyl (((1R,3r)-3-((5-(1-((1r,4R)-4-((tert-butoxycarbonyl)amino)cyclohexyl)-1H-1,2,3-triazol-4-yl)-2-(3-cyanopyrrolo[1,2-b]pyridazin-7-yl)pyridin-4-yl)amino)cyclobutyl)methyl)carbamate], the EC50 [1] was 187 nM and the IC50 [2] was 1 nM.
Compound CNc1cc(-c2ccc3cc(C#N)cnn23)ncc1-c1cn(CC(F)(F)F)nn1 [Compound 24, 7-(4-(methylamino)-5-(1-(2,2,2-trifluoroethyl)-1H-1,2,3-triazol-4-yl)pyridin-2-yl)pyrrolo[1,2-b]pyridazine-3-carbonitrile] has an EC50 ([1]; Monocyte) of 302 nM and an IC50 [2] of 11 nM.
